“And” between values parts separate entries of the source, which are not always exact repeats. Equal entries are not always repeated. Where two headings read alike, the source gives them in different places.
How the values were obtained:
[1] = target: CYP3A4 (Homo sapiens, UniProt P08684); assay: in vitro; settings: both, microsomes
[2] = target: T1, CYP2C9 (Homo sapiens, UniProt P11712); assay: in vitro; settings: both, microsomes
[3] = Pharmacokinetic study in SD rats, chiral HPLC of plasma halofenic acids (Example 14); type: in vivo; settings: single oral dose of (−) halofenate 50 mg/kg
Method: Male 225-250 g SD rats were purchased from Charles River. […] A catheter was placed in the left carotid artery under sodium pentobarbital (50 mg/kg i.p.) and animals were allowed to recover for 2 days before treatment. […] The gavage volume was 5 ml/kg. Blood samples were collected at 1, 2, 4, 6, 8, 12, 24, 48, 72, 96 and 120 hours post dose. The plasma samples were analyzed for each enantiomeric acid ((−) halofenic acid and (+) halofenic acid) by a chiral specific HPLC assay, since the esters are prodrugs, which are designed to convert to their respective enantiomeric acids in vivo.

[4] = target: T2, CYP2E1 (Homo sapiens, UniProt P05181); assay: in vitro; settings: both, microsomes
[5] = target: T3, CYP2A6 (Homo sapiens, UniProt P11509); settings: both, 20 min
T3 sequence (P11509 1-494): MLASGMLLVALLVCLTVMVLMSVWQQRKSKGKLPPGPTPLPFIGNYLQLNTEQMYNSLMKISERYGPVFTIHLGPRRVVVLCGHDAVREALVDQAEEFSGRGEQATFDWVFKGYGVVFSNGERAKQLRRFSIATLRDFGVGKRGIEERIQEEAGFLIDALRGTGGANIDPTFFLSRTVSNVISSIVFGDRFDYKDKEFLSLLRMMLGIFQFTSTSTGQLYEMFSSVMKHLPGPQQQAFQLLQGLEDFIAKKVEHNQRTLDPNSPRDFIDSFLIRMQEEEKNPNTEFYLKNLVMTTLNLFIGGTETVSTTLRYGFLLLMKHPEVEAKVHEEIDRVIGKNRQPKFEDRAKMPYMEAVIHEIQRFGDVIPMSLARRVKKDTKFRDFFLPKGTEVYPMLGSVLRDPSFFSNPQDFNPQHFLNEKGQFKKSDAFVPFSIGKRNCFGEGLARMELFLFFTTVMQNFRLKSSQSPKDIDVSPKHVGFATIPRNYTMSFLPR

[6] = target: T2, CYP2E1; settings: both, 20 min
[7] = target: CYP2D6 (Homo sapiens, UniProt P10635); assay: in vitro; settings: both, microsomes
[8] = target: CYP2C19 (Homo sapiens, UniProt P33261); assay: Cytochrome P450 isoform inhibition in human hepatic microsomes, S-mephenytoin (Example 18); type: in vitro ADME
[9] = target: T4, CYP1A2 (Homo sapiens, UniProt P05177); assay: in vitro; settings: both, microsomes
T4 sequence (P05177 1-516): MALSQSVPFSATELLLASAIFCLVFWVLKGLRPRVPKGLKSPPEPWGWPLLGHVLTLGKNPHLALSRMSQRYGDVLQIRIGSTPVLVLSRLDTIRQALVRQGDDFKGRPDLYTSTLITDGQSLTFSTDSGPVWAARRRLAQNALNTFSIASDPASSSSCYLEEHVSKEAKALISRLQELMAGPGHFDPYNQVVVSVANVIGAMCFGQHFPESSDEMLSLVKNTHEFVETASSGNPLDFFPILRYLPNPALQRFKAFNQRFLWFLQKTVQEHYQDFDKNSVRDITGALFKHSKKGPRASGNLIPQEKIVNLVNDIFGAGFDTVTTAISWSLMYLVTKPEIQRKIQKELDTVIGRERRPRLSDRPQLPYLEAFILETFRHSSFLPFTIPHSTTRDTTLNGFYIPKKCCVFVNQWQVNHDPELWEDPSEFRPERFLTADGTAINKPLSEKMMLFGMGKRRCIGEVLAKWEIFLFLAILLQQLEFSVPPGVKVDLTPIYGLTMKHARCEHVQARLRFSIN

[10] = target: T1, CYP2C9; settings: for Tolbutamide 4-OH TB Production: both, human, 40 min
[11] = target: T4, CYP1A2; settings: both, 30 min

CYP3A4, sequence (P08684 whole entry): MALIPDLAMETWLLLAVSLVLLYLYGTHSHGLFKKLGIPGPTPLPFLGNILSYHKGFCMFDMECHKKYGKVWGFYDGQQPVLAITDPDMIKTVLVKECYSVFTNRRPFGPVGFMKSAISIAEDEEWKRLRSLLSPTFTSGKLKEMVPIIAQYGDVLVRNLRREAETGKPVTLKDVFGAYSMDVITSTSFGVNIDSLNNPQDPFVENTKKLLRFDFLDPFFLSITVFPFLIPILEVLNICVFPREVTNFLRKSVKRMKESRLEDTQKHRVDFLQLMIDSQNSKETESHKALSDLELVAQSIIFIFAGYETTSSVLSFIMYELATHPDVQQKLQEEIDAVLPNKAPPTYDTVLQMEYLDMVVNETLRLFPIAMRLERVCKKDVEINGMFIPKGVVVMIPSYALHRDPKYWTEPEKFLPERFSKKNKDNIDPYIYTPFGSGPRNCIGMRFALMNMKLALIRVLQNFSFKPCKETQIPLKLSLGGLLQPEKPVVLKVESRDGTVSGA
T1 sequence (P11712 whole entry): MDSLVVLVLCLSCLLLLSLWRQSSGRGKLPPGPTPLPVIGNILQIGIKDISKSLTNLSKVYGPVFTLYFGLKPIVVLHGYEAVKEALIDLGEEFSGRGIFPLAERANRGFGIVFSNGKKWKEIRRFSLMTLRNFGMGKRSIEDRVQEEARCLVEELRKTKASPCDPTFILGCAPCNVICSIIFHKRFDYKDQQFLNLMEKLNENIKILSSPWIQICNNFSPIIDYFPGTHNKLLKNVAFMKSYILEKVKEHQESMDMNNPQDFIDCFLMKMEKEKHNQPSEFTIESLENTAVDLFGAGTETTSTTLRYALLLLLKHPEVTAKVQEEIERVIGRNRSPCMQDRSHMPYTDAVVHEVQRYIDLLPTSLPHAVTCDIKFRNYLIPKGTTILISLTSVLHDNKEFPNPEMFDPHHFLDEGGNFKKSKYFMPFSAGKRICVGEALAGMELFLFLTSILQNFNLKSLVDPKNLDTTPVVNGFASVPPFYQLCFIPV
CYP2D6, sequence (P10635 whole entry, canonical isoform): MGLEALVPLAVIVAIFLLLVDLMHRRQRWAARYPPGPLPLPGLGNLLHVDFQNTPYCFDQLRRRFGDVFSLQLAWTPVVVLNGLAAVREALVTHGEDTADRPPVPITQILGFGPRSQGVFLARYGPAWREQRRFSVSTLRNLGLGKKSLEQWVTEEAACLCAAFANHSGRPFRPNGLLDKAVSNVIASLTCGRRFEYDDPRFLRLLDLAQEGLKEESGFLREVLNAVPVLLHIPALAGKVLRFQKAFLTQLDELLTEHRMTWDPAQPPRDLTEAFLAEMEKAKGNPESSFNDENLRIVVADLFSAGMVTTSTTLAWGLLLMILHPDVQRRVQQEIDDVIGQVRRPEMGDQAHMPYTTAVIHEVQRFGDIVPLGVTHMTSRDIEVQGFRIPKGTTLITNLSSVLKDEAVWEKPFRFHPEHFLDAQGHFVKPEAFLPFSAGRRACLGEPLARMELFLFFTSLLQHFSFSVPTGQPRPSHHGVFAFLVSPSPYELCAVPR
CYP2C19, sequence (P33261 whole entry, canonical isoform): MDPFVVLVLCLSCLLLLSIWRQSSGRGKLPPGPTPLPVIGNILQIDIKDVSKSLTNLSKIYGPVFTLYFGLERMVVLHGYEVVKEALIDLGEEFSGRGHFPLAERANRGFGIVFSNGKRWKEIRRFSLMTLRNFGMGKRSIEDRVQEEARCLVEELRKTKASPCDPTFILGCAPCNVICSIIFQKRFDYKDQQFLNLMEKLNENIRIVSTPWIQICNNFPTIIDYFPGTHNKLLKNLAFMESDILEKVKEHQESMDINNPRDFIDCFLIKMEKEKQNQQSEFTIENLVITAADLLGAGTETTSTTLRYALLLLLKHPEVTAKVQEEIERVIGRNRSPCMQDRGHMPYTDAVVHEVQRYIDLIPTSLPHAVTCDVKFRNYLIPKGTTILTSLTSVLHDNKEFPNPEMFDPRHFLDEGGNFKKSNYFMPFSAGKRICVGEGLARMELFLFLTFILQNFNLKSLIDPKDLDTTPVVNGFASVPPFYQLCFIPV
T2 sequence (P05181 whole entry): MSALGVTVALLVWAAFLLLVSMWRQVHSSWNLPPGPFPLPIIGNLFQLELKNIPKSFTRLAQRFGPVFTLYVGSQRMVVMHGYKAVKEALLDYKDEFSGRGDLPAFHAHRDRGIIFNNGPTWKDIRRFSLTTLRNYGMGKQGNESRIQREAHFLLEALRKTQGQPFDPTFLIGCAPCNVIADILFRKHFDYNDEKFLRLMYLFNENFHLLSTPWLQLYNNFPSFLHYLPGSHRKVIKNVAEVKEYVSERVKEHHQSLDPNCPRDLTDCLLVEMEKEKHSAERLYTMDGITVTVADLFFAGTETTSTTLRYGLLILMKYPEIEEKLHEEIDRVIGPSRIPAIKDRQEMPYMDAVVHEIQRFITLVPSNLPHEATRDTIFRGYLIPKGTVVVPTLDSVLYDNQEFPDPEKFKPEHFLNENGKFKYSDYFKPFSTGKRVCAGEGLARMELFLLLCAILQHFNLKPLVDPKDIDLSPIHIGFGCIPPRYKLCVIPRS

## O=C(O)C(Oc1cccc(C(F)(F)F)c1)c1ccc(Cl)cc1 (single isomer, unassigned; (-)) [(−) halofenic acid, (−) 4-chlorophenyl-(3-trifluoromethylphenoxy)-acetic acid]
[1]
  inhibition at 10 min, 0.33 µM: 1.5%
  inhibition at 10 min, 1 µM: 0%
  inhibition at 10 min, 3.3 µM: 1.8%
  inhibition at 10 min, 10 µM: 1.3%
  inhibition at 10 min, 33.3 µM: 1.5%
[2]
  inhibition at 40 min, 0.33 μM: 5%
  inhibition at 40 min, 1 μM: 10%
  inhibition at 40 min, 3.3 μM: 21%
  inhibition at 40 min, 10 μM: 47%
  inhibition at 40 min, 33.3 μM: 71%
[3]; male, SD, rat, plasma, oral, 50 mg/kg, individual rats 8, 11
  concentration at 96 h: 31.1 µg/mL
[3]; male, SD, rat, plasma, oral, 50 mg/kg, rat 8
  concentration at 120 h: 20.3 µg/mL
[3]; individual rats 8, 9, 11
  plasma concentration at 0 hour: BQL (BQL = Below Quantifiable Limit < 1.00 μg/mL)
  plasma concentration at 1 hour: 81.2 µg/mL and 23.7 µg/mL and 61.0 µg/mL
  plasma concentration at 2 hours: 100.1 µg/mL and 30.4 µg/mL and 87.8 µg/mL
  plasma concentration at 4 hours: 122.3 µg/mL and 36.9 µg/mL and 94.5 µg/mL
  plasma concentration at 6 hours: 128.3 µg/mL and 56.5 µg/mL and 116.3 µg/mL
  plasma concentration at 8 hours: 128.2 µg/mL and 79.0 µg/mL and 127.8 µg/mL
  plasma concentration at 12 hours: 135.3 µg/mL and 80.6 µg/mL and 104.8 µg/mL
  plasma concentration at 24 hours: 82.5 µg/mL and 73.1 µg/mL and 66.5 µg/mL
  plasma concentration at 48 hours: 56.2 µg/mL and 44.5 µg/mL and 47.1 µg/mL
  plasma concentration at 72 hours: 39.7 µg/mL and 37.4 µg/mL and 30.8 µg/mL
[3]; individual rats 8, 11
  plasma concentration at 96 hours: 24.6 µg/mL
[4]
  inhibition at 20 min, 0.33 μM: 3%
  inhibition at 20 min, 1 μM: 1%
  inhibition at 20 min, 3.3 μM: 3%
  inhibition at 20 min, 10 μM: 1%
  inhibition at 20 min, 33.3 μM: 3%
[5]; 0.33 μM
  Coumarin 7-HC Production: 33.3 ± 0.7 pmol/mg protein/min
[5]; 1 μM
  Coumarin 7-HC Production: 32.6 ± 0.7 pmol/mg protein/min
[5]; 3.3 μM
  Coumarin 7-HC Production: 32.1 ± 0.7 pmol/mg protein/min
[5]; 10 μM
  Coumarin 7-HC Production: 33.1 ± 0.7 pmol/mg protein/min
[5]; 33.3 μM
  Coumarin 7-HC Production: 32.3 ± 0.7 pmol/mg protein/min
[6]; 0.33 μM
  Chlorzoxazone 6-OH CZX Production: 238 ± 4 pmol/mg protein/min
[6]; 1 μM
  Chlorzoxazone 6-OH CZX Production: 244 ± 1 pmol/mg protein/min
[6]; 3.3 μM
  Chlorzoxazone 6-OH CZX Production: 239 ± 4 pmol/mg protein/min
[6]; 10 μM
  Chlorzoxazone 6-OH CZX Production: 244 ± 6 pmol/mg protein/min
[6]; 33.3 μM
  Chlorzoxazone 6-OH CZX Production: 239 ± 4 pmol/mg protein/min
[7]
  inhibition at 15 min, 0.33 μM: 3%
  inhibition at 15 min, 1 μM: 1%
  inhibition at 15 min, 3.3 µM: 6%
  inhibition at 15 min, 10 µM: 4%
  inhibition at 15 min, 33.3 µM: 5%
[8]; both sexes, human, pooled human hepatic microsomes, probe S-mephenytoin 50 μM, test article 0.33 μM
  inhibition at 30 min, 0.33 μM: 4%
[8]; both sexes, human, pooled human hepatic microsomes, probe S-mephenytoin 50 μM, test article 1.0 μM
  inhibition at 30 min, 1 μM: 5%
[8]; both sexes, human, pooled human hepatic microsomes, probe S-mephenytoin 50 μM, test article 3.3 μM
  inhibition at 30 min, 3.3 μM: 15%
[8]; both sexes, human, pooled human hepatic microsomes, probe S-mephenytoin 50 μM, test article 10 μM
  inhibition at 30 min, 10 μM: 23%
[8]; both sexes, human, pooled human hepatic microsomes, probe S-mephenytoin 50 μM, test article 33.3 μM
  inhibition at 30 min, 33.3 μM: 43%
[8]; human hepatic microsomes 1 mg/mL, 50 μM S-mephenytoin, 30 minutes, read-out: IC50, 4-hydroxymephenytoin production (CYP2C19)
  IC50: > 33.3 µM
[9]
  inhibition at 30 min, 0.33 μM: 1%
  inhibition at 30 min, 1 μM: 0%
  inhibition at 30 min, 3.3 μM: -1%
  inhibition at 30 min, 10 μM: -1%
  inhibition at 30 min, 33.3 μM: -1%
[10]
  IC50 for CYP2C9 in Example 18 relative to that reported in Example 7: approximately three times
[10]; 0.33 μM
  Tolbutamide 4-OH TB Production: 41.0 ± 0.9 pmol/mg protein/min
[10]; 1 μM
  Tolbutamide 4-OH TB Production: 38.6 ± 0.5 pmol/mg protein/min
[10]; 3.3 μM
  Tolbutamide 4-OH TB Production: 34.2 ± 0.2 pmol/mg protein/min
[10]; 10 μM
  Tolbutamide 4-OH TB Production: 22.7 ± 0.6 pmol/mg protein/min
[10]; 33.3 μM
  Tolbutamide 4-OH TB Production: 12.7 ± 0.2 pmol/mg protein/min
[11]; 0.33 μM
  Phenacetin AC Production: 116 ± 2 pmol/mg protein/min
[11]; 1 μM
  Phenacetin AC Production: 118 ± 2 pmol/mg protein/min
[11]; 3.3 μM
  Phenacetin AC Production: 119 ± 2 pmol/mg protein/min
[11]; 10 μM
  Phenacetin AC Production: 119 ± 2 pmol/mg protein/min
[11]; 33.3 μM
  Phenacetin AC Production: 119 ± 2 pmol/mg protein/min

— patent US20040039053A1, “Use of(-) (3-halomethylphenoxy) (4-halophenyl) acetic acid derivatives for treatment of insulin resistance, type 2 diabetes, hyperlipidemia and hyperuricemia” (priority 2000, published 2004)
